Test results as given in US9682965B2, “Fumagillol heterocyclic compounds and methods of making and using same” (Zafgen, Inc., priority 2015, dated 2017).
Where a name gives a salt, the structure may show the parent alone.

tested on: Diet Induced Obese (DIO) C57BL/6 mice; test: 10 day DIO mouse model (body weight, food intake, hematology, blood chemistry); format: in vivo; settings: 240 h; DIO mouse, 0.3 mpk sc, once a day for 10 days; read-out: DIO Mouse 10-day weight loss vs vehicle
From the text: The objective of this study design was to investigate the efficacy of disclosed compounds in a 10 day DIO mouse model. Effects on body weight, food intake, hematology and blood chemistry were the primary readouts of this study design. […] Mice were fed Research Diets D12492 (60% Kcal fat, 20% Kcal carbohydrate and 20% protein) and provided water ad libitum. DIO mice were received and housed in the facility for approximately two weeks prior to the start of test article administration. On Day −4 or −3, mice were randomized into study groups based on body weight and body weights were continued to be recorded daily for the duration of the study. Daily food intake was assessed starting on Study Day −2 by weighing of the food with hopper together to avoid loss of food in transfer.
Compounds were formulated into a 100% DMSO stock (at 9 mg/mL) prior to the start, and further diluted into the target working concentration using the vehicle of 10% DMSO in water. Prior to test article administration, starting on Day −3 a dosing acclimation occured with all animals receiving a subcutaneous injection of vehicle (10% DMSO) only for 3 days. Starting on Day 1, test compounds or vehicle were administered based on individual body weight, subcutaneously, once a day for 10 days. All mice were sacrificed on Day 11, 24 hours following the final dosing on Day 10. After sacrifice, whole blood was collected and analyzed for hematology and blood chemistry parameters.
Compounds were tested vs. vehicle at various doses (1.0, 0.5, 0.3, 0.1, 0.03 mpk sc (mg per kg animal weight delivered subcutaneously), and the results are shown in Table 2 below.

Row | SMILES | inhibition in vivo at 0.3 mg/kg [%]
1 | CO[C@@H]1[C@H](OC(=O)N2CC(CCn3ccnc3)C2)CC[C@]2(CO2)[C@H]1[C@@]1(C)O[C@@H]1CC=C(C)C [Example 18, (3R,4S,5S,6R)-5-methoxy-4-((2R,3R)-2-methyl-3-(3-methylbut-2-enyl)oxiran-2-yl)-1-oxaspiro[2.5]octan-6-yl 3-(2-(1H-imidazol-1-yl)ethyl)azetidine-1-carboxylate] | 3
2 | CO[C@@H]1[C@H](OC(=O)N2CC(CCN3CCN(C)C(=O)C3)C2)CC[C@]2(CO2)[C@H]1[C@@]1(C)O[C@@H]1CC=C(C)C [Example 11, (3R,4S,5S,6R)-5-methoxy-4-((2R,3R)-2-methyl-3-(3-methylbut-2-enyl)oxiran-2-yl)-1-oxaspiro[2.5]octan-6-yl 3-(2-(4-methyl-3-oxopiperazin-1-yl)ethyl)azetidine-1-carboxylate formate] | 2
3 | CO[C@@H]1[C@H](OC(=O)N2CC(=CCN3CCN(CC(F)F)CC3)C2)CC[C@]2(CO2)[C@H]1[C@@]1(C)O[C@@H]1CC=C(C)C [Example 97, (3R,4S,5S,6R)-5-methoxy-4-((2R,3R)-2-methyl-3-(3-methylbut-2-enyl)oxiran-2-yl)-1-oxaspiro[2.5]octan-6-yl 3-(2-(4-(2,2-difluoroethyl)piperazin-1-yl)ethylidene)azetidine-1-carboxylate] | 21.3
4 | CO[C@@H]1[C@H](OC(=O)N2CC(=CCN3CCOCC3)C2)CC[C@]2(CO2)[C@H]1[C@@]1(C)O[C@@H]1CC=C(C)C [Example 96, (3R,4S,5S,6R)-5-methoxy-4-((2R,3R)-2-methyl-3-(3-methylbut-2-enyl)oxiran-2-yl)-1-oxaspiro[2.5]octan-6-yl 3-(2-morpholinoethylidene)azetidine-1-carboxylate] | 18.6
5 | CCNC(=O)OC1CN(C(=O)O[C@@H]2CC[C@]3(CO3)[C@@H]([C@@]3(C)O[C@@H]3CC=C(C)C)[C@@H]2OC)C1 [Example 75, (3R,4S,5S,6R)-5-methoxy-4-((2R,3R)-2-methyl-3-(3-methylbut-2-enyl)oxiran-2-yl)-1-oxaspiro[2.5]octan-6-yl 3-(ethylcarbamoyloxy)azetidine-1-carboxylate] | 12.8
6 | CO[C@@H]1[C@H](OC(=O)N2CC(CCN3CCN(CC(F)F)CC3=O)C2)CC[C@]2(CO2)[C@H]1[C@@]1(C)O[C@@H]1CC=C(C)C [Example 35, (3R,4S,5S,6R)-5-methoxy-4-((2R,3R)-2-methyl-3-(3-methylbut-2-enyl)oxiran-2-yl)-1-oxaspiro[2.5]octan-6-yl 3-(2-(4-(2,2-difluoroethyl)-2-oxopiperazin-1-yl)ethyl)azetidine-1-carboxylate] | 21.3
7 | CO[C@@H]1[C@H](OC(=O)N2CC(CCN3CCOCC3=O)C2)CC[C@]2(CO2)[C@H]1[C@@]1(C)O[C@@H]1CC=C(C)C [Example 39, (3R,4S,5S,6R)-5-methoxy-4-((2R,3R)-2-methyl-3-(3-methylbut-2-enyl)oxiran-2-yl)-1-oxaspiro[2.5]octan-6-yl 3-(2-(3-oxomorpholino)ethyl)azetidine-1-carboxylate] | 1.7
8 | CO[C@@H]1CCN(CCC2CN(C(=O)O[C@@H]3CC[C@]4(CO4)[C@@H]([C@@]4(C)O[C@@H]4CC=C(C)C)[C@@H]3OC)C2)C1 [Example 26, (3R,4S,5S,6R)-5-methoxy-4-((2R,3R)-2-methyl-3-(3-methylbut-2-enyl)oxiran-2-yl)-1-oxaspiro[2.5]octan-6-yl 3-(2-((R)-3-methoxypyrrolidin-1-yl)ethyl)azetidine-1-carboxylate] | 4.1
9 | CO[C@@H]1[C@H](OC(=O)N2CC[C@@H](CCN3CC(F)(F)C3)C2)CC[C@]2(CO2)[C@H]1[C@@]1(C)O[C@@H]1CC=C(C)C [Example 58, (R)-((3R,4S,5S,6R)-5-methoxy-4-((2R,3R)-2-methyl-3-(3-methylbut-2-enyl)oxiran-2-yl)-1-oxaspiro[2.5]octan-6-yl) 3-(2-(3,3-difluoroazetidin-1-yl)ethyl)pyrrolidine-1-carboxylate] | 15.8
10 | CO[C@@H]1[C@H](OC(=O)N2CC(Oc3ccccn3)C2)CC[C@]2(CO2)[C@H]1[C@@]1(C)O[C@@H]1CC=C(C)C [Example 99, (3R,4S,5S,6R)-5-methoxy-4-((2R,3R)-2-methyl-3-(3-methylbut-2-enyl)oxiran-2-yl)-1-oxaspiro[2.5]octan-6-yl 3-(pyridin-2-yloxy)azetidine-1-carboxylate] | 22.9
11 | CO[C@@H]1[C@H](OC(=O)N2CC(CCN3[C@@H]4CC[C@H]3COC4)C2)CC[C@]2(CO2)[C@H]1[C@@]1(C)O[C@@H]1CC=C(C)C [Example 31, (3R,4S,5S,6R)-5-methoxy-4-((2R,3R)-2-methyl-3-(3-methylbut-2-enyl)oxiran-2-yl)-1-oxaspiro[2.5]octan-6-yl 3-(2-((1R,5S)-3-oxa-8-azabicyclo[3.2.1]octan-8-yl)ethyl)azetidine-1-carboxylate] | 4.2
12 | COC(=O)NC1CN(C(=O)O[C@@H]2CC[C@]3(CO3)[C@@H]([C@@]3(C)O[C@@H]3CC=C(C)C)[C@@H]2OC)C1 [Example 87, (3R,4S,5S,6R)-5-methoxy-4-((2R,3R)-2-methyl-3-(3-methylbut-2-enyl)oxiran-2-yl)-1-oxaspiro[2.5]octan-6-yl 3-(methoxycarbonylamino)azetidine-1-carboxylate] | 10.9
13 | CO[C@@H]1[C@H](OC(=O)N2CC(CCN3CC[C@H](F)C3)C2)CC[C@]2(CO2)[C@H]1[C@@]1(C)O[C@@H]1CC=C(C)C [Example 28, (3R,4S,5S,6R)-5-methoxy-4-((2R,3R)-2-methyl-3-(3-methylbut-2-enyl)oxiran-2-yl)-1-oxaspiro[2.5]octan-6-yl 3-(2-((S)-3-fluoropyrrolidin-1-yl)ethyl)azetidine-1-carboxylate] | 12.7
14 | CO[C@@H]1[C@H](OC(=O)N2CC(CCC3CN(CC(F)F)C3)C2)CC[C@]2(CO2)[C@H]1[C@@]1(C)O[C@@H]1CC=C(C)C [Example 92, (3R,4S,5S,6R)-5-methoxy-4-((2R,3R)-2-methyl-3-(3-methylbut-2-enyl)oxiran-2-yl)-1-oxaspiro[2.5]octan-6-yl 3-(2-(1-(2,2-difluoroethyl)azetidin-3-yl)ethyl)azetidine-1-carboxylate] | 20.7
15 | CO[C@@H]1[C@H](OC(=O)N2CC(COC(=O)N(C)C)C2)CC[C@]2(CO2)[C@H]1[C@@]1(C)O[C@@H]1CC=C(C)C [Example 70, (3R,4S,5S,6R)-5-methoxy-4-((2R,3R)-2-methyl-3-(3-methylbut-2-enyl)oxiran-2-yl)-1-oxaspiro[2.5]octan-6-yl 3-((dimethylcarbamoyloxy)methyl)azetidine-1-carboxylate] | 14.5
16 | CO[C@@H]1[C@H](OC(=O)N2CC(CCN3CCC(F)(F)CC3)C2)CC[C@]2(CO2)[C@H]1[C@@]1(C)O[C@@H]1CC=C(C)C [Example 13, (3R,4S,5S,6R)-5-methoxy-4-((2R,3R)-2-methyl-3-(3-methylbut-2-enyl)oxiran-2-yl)-1-oxaspiro[2.5]octan-6-yl 3-(2-(4,4-difluoropiperidin-1-yl)ethyl)azetidine-1-carboxylate] | 18.2
17 | CO[C@@H]1[C@H](OC(=O)N2CC(CCN3CCC(C)(C#N)CC3)C2)CC[C@]2(CO2)[C@H]1[C@@]1(C)O[C@@H]1CC=C(C)C [Example 29, (3R,4S,5S,6R)-5-methoxy-4-((2R,3R)-2-methyl-3-(3-methylbut-2-enyl)oxiran-2-yl)-1-oxaspiro[2.5]octan-6-yl 3-(2-(4-cyano-4-methylpiperidin-1-yl)ethyl)azetidine-1-carboxylate] | 10.7
18 | CO[C@@H]1[C@H](OC(=O)N2CC(CCN3CCCC3)C2)CC[C@]2(CO2)[C@H]1[C@@]1(C)O[C@@H]1CC=C(C)C [Example 3, (3R,4S,5S,6R)-5-methoxy-4-((2R,3R)-2-methyl-3-(3-methylbut-2-enyl)oxiran-2-yl)-1-oxaspiro[2.5]octan-6-yl 3-(2-(pyrrolidin-1-yl)ethyl)azetidine-1-carboxylate formate] | 5.9
19 | CCN(CC)CC1CN(C(=O)O[C@@H]2CC[C@]3(CO3)[C@@H]([C@@]3(C)O[C@@H]3CC=C(C)C)[C@@H]2OC)CCO1 (stereo partly drawn) [Example 44, (3R,4S,5S,6R)-5-methoxy-4-((2R,3R)-2-methyl-3-(3-methylbut-2-enyl)oxiran-2-yl)-1-oxaspiro[2.5]octan-6-yl 2-((diethylamino)methyl)morpholine-4-carboxylate formate] | 2.1
20 | CO[C@@H]1[C@H](OC(=O)N2CC(CC3CCN(CC(F)F)CC3)C2)CC[C@]2(CO2)[C@H]1[C@@]1(C)O[C@@H]1CC=C(C)C [Example 94, (3R,4S,5S,6R)-5-methoxy-4-((2R,3R)-2-methyl-3-(3-methylbut-2-enyl)oxiran-2-yl)-1-oxaspiro[2.5]octan-6-yl 3-((1-(2,2-difluoroethyl)piperidin-4-yl)methyl)azetidine-1-carboxylate] | 22.5
21 | CO[C@@H]1[C@H](OC(=O)N2CC[C@@H]2CN2CCCC2)CC[C@]2(CO2)[C@H]1[C@@]1(C)O[C@@H]1CC=C(C)C [Example 42, (R)-((3R,4S,5S,6R)-5-methoxy-4-((2R,3R)-2-methyl-3-(3-methylbut-2-enyl)oxiran-2-yl)-1-oxaspiro[2.5]octan-6-yl) 2-(pyrrolidin-1-ylmethyl)azetidine-1-carboxylate formate] | 5.3
